This passage reports inhibition results from publication PMC6597546, “Identification of a potent benzoxaborole drug candidate for treating cryptosporidiosis” (Nature Communications, 2019).

In the data set the target is T1, CYP1A2 (Homo sapiens, UniProt P05177).
T1 sequence (P05177 1-516): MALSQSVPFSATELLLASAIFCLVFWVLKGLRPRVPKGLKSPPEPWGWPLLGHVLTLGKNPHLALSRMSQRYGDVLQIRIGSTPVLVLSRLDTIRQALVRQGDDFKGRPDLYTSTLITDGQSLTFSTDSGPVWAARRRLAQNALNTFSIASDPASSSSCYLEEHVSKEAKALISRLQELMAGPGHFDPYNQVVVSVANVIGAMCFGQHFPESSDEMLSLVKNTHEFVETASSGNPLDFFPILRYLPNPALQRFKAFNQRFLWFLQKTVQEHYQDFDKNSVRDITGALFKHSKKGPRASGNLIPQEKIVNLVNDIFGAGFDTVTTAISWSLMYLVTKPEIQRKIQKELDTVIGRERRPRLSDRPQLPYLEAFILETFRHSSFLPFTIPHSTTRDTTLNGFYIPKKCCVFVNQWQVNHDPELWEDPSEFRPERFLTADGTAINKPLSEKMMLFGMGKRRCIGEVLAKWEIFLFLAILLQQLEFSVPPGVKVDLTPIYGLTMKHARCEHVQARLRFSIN
The data set can be described thus: CYP450 inhibition 1A2. The data set is classed as in vitro ADME.

As a reminder, the inhibition is how much of the control response was suppressed.

`CC1(C)OB(O)c2cc(NC(=O)c3ccc(-n4cccn4)cc3Cl)ccc21` [AN7973] had an inhibition at 10 µM of 1%.
